The conditions of series [1]: cited from earlier work.
Series [2] concerns TWIST1-overexpressing cells. Put plainly: Reversal of TWIST1-dependent growth arrest by p38 inhibition. The class given is cell-based. Conditions: FIG. 4A. From the text:
TWIST1 was overexpressed so as to achieve maximal TWIST1 effect, thereby avoiding the confounding problem of added TGFβ1. TWIST1 overexpression alone generated vigorous TGFβ1-independent EMT and led to 2-3 fold lower ERK:p38 signaling ratio (i.e. high p38 activity) compared to the empty vector (FIG. 3D).
(§1) SNAIL1 represses TWIST1 during EMT initiation. TWIST1 maintains EMT by creating a low ERK:p38 signaling ratio (high p38 activity). Thus high SNAIL1 levels in primary tumors would induce EMT while high TWIST1 levels would maintain EMT in metastatic cells and possibly contribute to lpDTCs in metastatic sites (FIG. 1).

Series [3] has as its system BM DTCs. Put plainly: BM DTC count and lpDTC fraction in ErbB2-induced mouse breast cancer model after single-agent treatment. The class given is in vivo. Conditions: for BM DTC count: FIG. 8A, p<0.05; for fraction of BM lpDTCs (TWIST1+; p-p38+; BrdU- DTCs over total BM DTCs): FIG. 8B. The source says: FIGS. 8A-8B show the dormant TWIST1^+; p-p38; BrdU-DTCs resistance to cytotoxic drugs in ErbB2-induced mouse breast cancer model.
Of these TWIST1-positive BM DTCs, nearly 80% (23/29) expressed activated p38 (p-p38) and 70% (20/29) were also growth arrested as measured by a lack of BrdU incorporation (FIG. 7C-D). In contrast, of the TWIST1-negative DTCs, 94% (67/71) lacked activated p38 and 77% (55/71) were also actively proliferating. Therefore TWIST1-positive; p-p38-positive; BrDU-negative cells represent the fraction of true lpDTCs in these models. To confirm that these BM lpDTCs were resistant to cytotoxic agents and that p38 plays a critical role in their growth arrest, these mice were treated with either SB203085 (10 μmol/kg IP BID×7 days) or the cytotoxic drug paclitaxel (Taxol, 10 mg/kg IP once) and measured the number of all BM DTCs and the fraction of lpDTCs (ratio of TWIST1+; p-p38+; BrdU-DTCs over total BM DTCs). […] ErbB2- or PyMT-induced breast tumor mice were untreated or treated with either Taxol alone or a combination of SB203085 plus Taxol with SB203085 starting 72 hrs prior to and ending 72 hrs after each dose of Taxol (FIG. 9). Three 21-day cycles of chemotherapy were given. Total BM DTCs were determined prior to and 1 week after treatment ended.

Series [4] concerns BM DTCs. Put plainly: p38 inhibitor plus Taxol in PyMT-induced breast tumor mice: total BM DTCs and overall survival. The following applies: MMTV-PyMT mice; SB203085 72 hrs prior to until 72 hrs after each Taxol dose, 3 cycles; vs Taxol alone and untreated. The class given is in vivo, mouse. How it is done: FIGS. 9A-9B show the p38 inhibition increase the DTCs' sensitivity to cytotoxic chemotherapy. DTCs-bearing PyMT-induced breast tumor mice were either untreated or treated with Taxol alone (10 mg/kg) or with SB203085 (10 μg/kg) followed by Taxol. Taxol was given IP every 3 weeks for 3 cycles. SB203085 was given IP BID starting 72 hours prior to Taxol and continuing until 72 hours after Taxol infusion. Ten mice were included in each reference group. FIGS. 9A and B show the overall survival (A) and total BM DTCs (B) before and after chemo were determined.
Of these TWIST1-positive BM DTCs, nearly 80% (23/29) expressed activated p38 (p-p38) and 70% (20/29) were also growth arrested as measured by a lack of BrdU incorporation (FIG. 7C-D). In contrast, of the TWIST1-negative DTCs, 94% (67/71) lacked activated p38 and 77% (55/71) were also actively proliferating. […] To confirm that these BM lpDTCs were resistant to cytotoxic agents and that p38 plays a critical role in their growth arrest, these mice were treated with either SB203085 (10 μmol/kg IP BID×7 days) or the cytotoxic drug paclitaxel (Taxol, 10 mg/kg IP once) and measured the number of all BM DTCs and the fraction of lpDTCs (ratio of TWIST1+; p-p38+; BrdU-DTCs over total BM DTCs). […] Total BM DTCs were determined prior to and 1 week after treatment ended. […]

The subject of the next series is TWIST1-positive cells. Put plainly: Sensitivity of TWIST1-positive cells to Taxol with or without SB203580 pretreatment. The class given is cell-based.
Description: as §1

Consider 3 compounds from patent US11452713B2, “Chemotherapeutic methods for treating low-proliferative disseminated tumor cells” (University of Florida Research Foundation, Incorporated, priority 2016, dated 2022).

Entries after “also recorded” stand apart in the source; their conditions may differ. Some results are limits rather than exact numbers.

For the compound `CNC(=O)c1ccc(C)c(-n2c(C)cc(OCc3ccc(F)cc3F)c(Br)c2=O)c1` [PH797804, 3-(4-(2,4-difluorobenzyloxy)-3-bromo-6-methyl-2-oxopyridin-1(2H)-yl)-N,4-dimethylbenzamide], the tolerability result in series [1] (4 dose levels 0.5, 3, 6 and 10 mg PO qday) was “well tolerated”. Moreover, in series [1] (phase 2 trial in emphysema), the “most common side effect: skin rash” value is roughly 1% and the severe adverse events entry was “No significant severe adverse events”.

Regarding `C[S+]([O-])c1ccc(-c2nc(-c3ccc(F)cc3)c(-c3ccncc3)[nH]2)cc1` (centres unmarked) [SB203580, 4-(4-Fluorophenyl)-2-(4-methylsulfinylphenyl)-5-(4-pyridyl)-1H-imidazole], the TWIST1-dependent growth arrest entry in series [2] was “reversed TWIST1-dependent growth arrest in a dose dependent manner”. In addition, in the series on BM DTCs [3] (10 μmol/kg IP BID x 7 days), the “increase of number of total BM DTCs compared to non-treated animals” value was greater than 4 fold. For the same compound, the “BM DTC count” value with BM DTCs [3] is given as “increases”. In the series on BM DTCs [3] (listed as SB203085), the “fraction of BM lpDTCs (TWIST1+; p-p38+; BrdU- DTCs over total BM DTCs)” value is “decreased”. In addition, in the series with BM DTCs [4], the overall survival entry is recorded as “increased overall survival” and the “total BM DTCs” value is “significantly reduced total BM DTCs”.

By IC50 is commonly meant the concentration that gives 50% inhibition. As for `CC(=O)O[C@H]1C(=O)[C@@]2(C)[C@H]([C@H](OC(=O)c3ccccc3)[C@]3(O)C[C@H](OC(=O)[C@H](O)[C@@H](NC(=O)c4ccccc4)c4ccccc4)C(C)=C1C3(C)C)[C@]1(OC(C)=O)CO[C@@H]1C[C@@H]2O` [Taxol, paclitaxel], the 50% inhibitory concentration (IC50) is greater than 40 nM with TWIST1-positive cells (non-pretreated, FIG. 4B) and 6.1 nM in the series with TWIST1-positive cells (pretreatment with SB203580, FIG. 4B). In the series on BM DTCs [3] (10 mg/kg IP once), the “decrease of total DTC number” value was roughly 2.5 fold. Further, the “BM DTC count” value in the series on BM DTCs [3] was “decreases”. Besides, the “fraction of BM lpDTCs (TWIST1+; p-p38+; BrdU- DTCs over total BM DTCs)” value in the series with BM DTCs [3] is reported as “enriches; also recorded: significantly increased”.
